Assay results published in ChEMBL document CHEMBL1148896, “BI-32169, a bicyclic 19-peptide with strong glucagon receptor antagonist activity from Streptomyces sp” (J Nat Prod, 2004).
pIC50: −log10 of the molar value. Bridge positions count the residues as written; N and C are the ends. Peptide text beside a SMILES is read from it. I, II: the chains in the order shown.

molecular target: Glucagon receptor (Homo sapiens, UniProt P47871); assay: Antagonist activity at human glucagon receptor expressed in BHK21 cells assessed as inhibition of glucagon-induced cAMP elevation by RIA; assay type: functional, cell-based, BHK-21
Sequence (P47871 whole entry): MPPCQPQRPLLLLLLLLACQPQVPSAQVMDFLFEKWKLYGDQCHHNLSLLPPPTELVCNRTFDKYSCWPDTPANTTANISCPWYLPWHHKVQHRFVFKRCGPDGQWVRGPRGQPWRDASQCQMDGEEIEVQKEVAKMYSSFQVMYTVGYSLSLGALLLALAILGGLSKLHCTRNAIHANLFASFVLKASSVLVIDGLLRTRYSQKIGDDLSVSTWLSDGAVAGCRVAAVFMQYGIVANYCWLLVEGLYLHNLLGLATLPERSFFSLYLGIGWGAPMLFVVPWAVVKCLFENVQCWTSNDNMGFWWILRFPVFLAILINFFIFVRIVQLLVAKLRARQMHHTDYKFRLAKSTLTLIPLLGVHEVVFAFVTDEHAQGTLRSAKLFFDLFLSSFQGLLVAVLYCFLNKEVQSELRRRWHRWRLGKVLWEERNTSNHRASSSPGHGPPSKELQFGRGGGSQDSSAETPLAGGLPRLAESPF

pIC50 | SMILES
6.49 | CC[C@H](C)[C@@H]1NC(=O)C[C@@H]2NC(=O)[C@H](CO)NC(=O)[C@@H]3CCCN3C(=O)[C@H](CSSC[C@@H](C(=O)OC)NC(=O)[C@H](C)NC(=O)[C@H](Cc3c[nH]c4ccccc34)NC(=O)[C@@H]3CCCN3C(=O)[C@H]([C@@H](C)O)NC(=O)[C@H](CC(N)=O)NC(=O)[C@H](Cc3c[nH]c4ccccc34)NC(=O)CNC(=O)[C@@H]3CCCN3C1=O)NC(=O)CNC(=O)[C@H](Cc1c[nH]c3ccccc13)NC(=O)[C@@H]1CCCN1C(=O)[C@H](CC(C)C)NC(=O)CNC2=O (I: IPGWNTPWAC-OMe / II: cyclo(CPSDGLPWG); disulfide I:10-II:1; amide I:N-II:4)
6.36 | CC[C@H](C)[C@@H]1NC(=O)[C@@H]2CC(=O)NCC(=O)N[C@@H](CC(C)C)C(=O)N3CCC[C@H]3C(=O)N[C@@H](Cc3c[nH]c4ccccc34)C(=O)NCC(=O)N[C@@H](CSSC[C@@H](C(=O)O)NC(=O)[C@H](C)NC(=O)[C@H](Cc3c[nH]c4ccccc34)NC(=O)[C@@H]3CCCN3C(=O)[C@H]([C@@H](C)O)NC(=O)[C@H](CC(N)=O)NC(=O)[C@H](Cc3c[nH]c4ccccc34)NC(=O)CNC(=O)[C@@H]3CCCN3C1=O)C(=O)N1CCC[C@H]1C(=O)N[C@@H](CO)C(=O)N2 (GLPWGCPSDIPGWNTPWAC-OH; disulfide 6-19; lactam N-9)
4.70 | CC1CC(=O)c2c(cc3c(-c4c(O)cc(O)c5c(O)c6c(cc45)OC(C)CC6=O)c(O)cc(O)c3c2O)O1 (stereo not drawn) [CEPHALOCHROMIN]
